Experimental data from patent publication US20260209242A1, “CAMPTOTHECIN DERIVATIVE, PHARMACEUTICAL COMPOSITION, AND PREPARATION METHOD AND USE THEREFOR” (priority 2022, published 2026).
pIC50: −log10 of the molar value. In brackets after ≈: the same amount, converted by molar mass. Where two headings read alike, the source gives them in different places.

Key:
[1] = biological target: CYP2D6 (Homo sapiens, UniProt P10635); test: Inhibition on human hepatomicrosomes CYP2D6
[2] = biological target: T1, CYP1A2 (Homo sapiens, UniProt P05177); test: Inhibition on human hepatomicrosomes CYP1A2
T1 sequence (P05177 1-516): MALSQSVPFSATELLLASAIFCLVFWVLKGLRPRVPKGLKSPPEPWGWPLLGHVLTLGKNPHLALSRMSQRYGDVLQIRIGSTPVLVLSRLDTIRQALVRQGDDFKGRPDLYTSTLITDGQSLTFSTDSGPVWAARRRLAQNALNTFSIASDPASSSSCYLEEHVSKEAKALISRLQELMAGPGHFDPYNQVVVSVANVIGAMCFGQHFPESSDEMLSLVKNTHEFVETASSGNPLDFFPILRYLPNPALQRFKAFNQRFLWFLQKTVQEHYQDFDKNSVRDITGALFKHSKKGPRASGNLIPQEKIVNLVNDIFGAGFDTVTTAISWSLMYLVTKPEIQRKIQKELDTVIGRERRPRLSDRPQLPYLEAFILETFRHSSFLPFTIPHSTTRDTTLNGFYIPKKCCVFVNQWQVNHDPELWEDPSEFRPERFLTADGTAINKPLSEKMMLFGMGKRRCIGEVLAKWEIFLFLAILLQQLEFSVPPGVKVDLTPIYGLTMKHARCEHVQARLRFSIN

[3] = biological target: T2, CYP3A4 (Homo sapiens, UniProt P08684); test: Inhibition on human hepatomicrosomes CYP3A4; type: in vitro ADME; conditions: for IC50: read-out: 3A4M (IC50 μM), human hepatomicrosomes, substrate midazolam
T2 construct: from tissue; host or cells: human liver microsomes
T2 sequence (P08684 whole entry): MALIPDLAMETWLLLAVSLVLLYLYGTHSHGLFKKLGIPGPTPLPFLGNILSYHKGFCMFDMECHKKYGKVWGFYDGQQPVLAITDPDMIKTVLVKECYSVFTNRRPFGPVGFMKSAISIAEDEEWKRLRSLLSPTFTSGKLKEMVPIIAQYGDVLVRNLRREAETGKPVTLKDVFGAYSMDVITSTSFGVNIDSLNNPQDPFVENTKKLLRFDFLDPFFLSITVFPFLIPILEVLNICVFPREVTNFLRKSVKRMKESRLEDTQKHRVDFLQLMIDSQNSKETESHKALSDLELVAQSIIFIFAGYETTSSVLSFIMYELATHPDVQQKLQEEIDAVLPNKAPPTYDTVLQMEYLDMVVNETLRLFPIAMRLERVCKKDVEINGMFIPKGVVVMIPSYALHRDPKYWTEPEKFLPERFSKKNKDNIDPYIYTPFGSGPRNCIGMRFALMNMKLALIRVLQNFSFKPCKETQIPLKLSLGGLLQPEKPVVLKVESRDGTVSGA

[4] = Stability of compounds in human plasma; type: in vitro ADME; conditions: for Residual percentage (%) 1 h / Residual percentage (%) 2 h / Residual percentage (%) 6 h / Residual percentage (%) 24 h: 5 μmol/L
Procedure: • (1) 199 μL of human plasma was added to the culture plate of each cell. The culture plate was preheated to 37° C., and kept at this temperature for 15 min. • (2) After preincubation, 1 μL of 1 mmol/L each test compound and 1 μL of 1 mmol/L control compound were added to 199 μL of plasma, so that a final concentration of each test compound was 5 μmol/L and that of the control compound was 5 gmol/L. The final concentration of the organic solvent was 0.5%. The experiment would be duplicated twice. • (3) Reaction samples were incubated at 37° C. • (4) The reaction was stopped by adding 600 μL of cold methanol containing the internal standard at 0, 1, 2, 6, and 24 h. Each sample was vortex mixed for 10 min, and then centrifuged at 3,220 g for 30 min to precipitate the protein. […] Based on the signal response and peak shapes of liquid chromatography-mass spectrometry (LC-MS), the supernatant would be diluted with ultrapure water.
All calculations were performed using Microsoft Excel. The peak area ratio was determined from the chromatogram of extracted ions. The percentage of compounds remaining at each time point was calculated as per the following formula: […]

[5] = Kinetic solubility test in PBS 7.4; type: physicochemical; conditions: for solubility at 2 h: 25 °C, pH 7.4, aqueous buffer, kinetic from dmso stock
Procedure: 10 mM stock solutions of the test substances 6-2, 11-2, 17-2, Dxd, and the control drugs progesterone and diclofenac were prepared using DMSO respectively.
15 μL of 10 mM stock solution of each of the test substances was added to a corresponding position of a corresponding 96-well plate in a specified sequence. 485 μL of the PBS 7.4 was added to a corresponding vial on a sample plate. The experiment was run in duplicate. Each vial was additionally provided with a stirring rod and was plugged. Then, the sample plate was transferred in a thermostatic mixer, and oscillated at a revolving speed of 1,100 rpm at 25° C. for 2 h. 2 h later, the plug was removed, the stirring rod was attracted away with a large magnet, and then the sample was transferred from the sample plate to the filter plate. Negative pressure was generated using a vacuum pump to filter the sample. 5 μL of filtrate and 5 μL of blank DMSO were transferred to another sample plate, and then 490 μL of internal standard water (acetonitrile:water=1:1) containing the internal standard was added. Depending on peak shapes, a certain proportion of internal standard water may be used to dilute the sample diluent to obtain better peak shapes.
6 μL was transferred from the 10 mM DMSO stock solution plate to a blank plate, and was prepared into a 300 μM standard substance solution with addition of 194 μL of DMSO. 5 μL was transferred from the 300 μM standard substance solution plate to still another blank plate, and then 5 μL of blank buffer and 490 μL of the internal standard water containing the internal standard (acetonitrile:water=1:1) were added until a final concentration of the standard substance solution was 3 μM.
An injection plate was transferred on an injection tray of an autosampler to evaluate the sample by LC/MS analysis.
All calculations were performed using Microsoft Excel.
The sample filtrate was analyzed and quantified by qualitative and quantitative LC/MS of standard substance peaks at known concentrations. The calculation formula for the solubility values of the reference drugs and the test substances are as follows:
[Sample] is the compound concentration, DFSample refers to the sample dilution factor, [STD] is the standard substance concentration of the compound, AREAStd is the standard substance peak area of the compound, and AREASample is the peak area of the compound sample.

[6] = Pharmacokinetic test in SD rats; conditions: male, Sprague-Dawley (SD), rat, in vivo, iv, 2 mg/kg
Procedure: After a single intravenous injection (dose: 2 mpk) of the compounds 6-2, 11-2, 17-2, and Dxd into male SD rats (blood collection time points: 0.083 h, 0.25 h, 0.5 h, 1 h, 2 h, 4 h, 8 h, and 24 h after IV administration, totaling 8 blood collection time points), average pharmacokinetic parameters in the plasma are as shown in Table 5: […]

[7] = Stability of compounds in human plasma; type: in vitro ADME; conditions: 5 μmol/L

Sequence of CYP2D6 (P10635 whole entry): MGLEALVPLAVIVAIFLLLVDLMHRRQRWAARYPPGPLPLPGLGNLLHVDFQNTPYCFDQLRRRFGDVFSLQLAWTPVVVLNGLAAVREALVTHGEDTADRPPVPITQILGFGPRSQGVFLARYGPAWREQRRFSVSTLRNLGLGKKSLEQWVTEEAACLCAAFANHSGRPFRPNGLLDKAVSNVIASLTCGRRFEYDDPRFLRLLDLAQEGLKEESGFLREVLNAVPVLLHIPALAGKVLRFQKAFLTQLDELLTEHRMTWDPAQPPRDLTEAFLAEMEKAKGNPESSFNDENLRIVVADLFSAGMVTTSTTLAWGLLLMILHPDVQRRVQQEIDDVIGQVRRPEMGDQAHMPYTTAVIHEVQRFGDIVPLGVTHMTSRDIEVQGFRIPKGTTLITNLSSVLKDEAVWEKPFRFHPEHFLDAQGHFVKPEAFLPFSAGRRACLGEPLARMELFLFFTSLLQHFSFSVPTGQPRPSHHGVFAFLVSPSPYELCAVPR

Row | Compound | pIC50 [1] | pIC50 [2] | pIC50 [3] | IC50 [3] | Residual percentage (%) 1 h [4] | Residual percentage (%) 2 h [4] | Residual percentage (%) 6 h [4] | Residual percentage (%) 24 h [4] | stability in human plasma (in words) [4] | solubility in the PBS 7.4 compared with Dxd (in words) [5] | solubility at 2 h [5] | AUC(0-inf) [6] | AUC(0-t) [6] | C0 [6] | Vd [6] | clearance [6] | half-life [6] | Residual percentage (%) 4 h [7]
1 | CC[C@@]1(O)C(=O)OCc2c1cc1n(c2=O)Cc2c-1nc1cc(F)c(C)c3c1c2C(NC(=O)C[C@@H](C)O)CCC3 (single isomer, unassigned) [Compound 6-2] | < 4.52 | < 4.52 | < 4.52 | > 30 µM | 96.62% | 86.16% | 88.99% | 87.01% | good stability in human plasma | significantly better solubility in the PBS 7.4 than Dxd | 170 µM (≈ 91 µg/mL) | 318 ng·h/mL | 314 ng·h/mL | 677 ng/mL | 2.93 L/kg | 108 mL/min/kg | 0.39 h | 93.65%
2 | CC[C@@]1(O)C(=O)OCc2c1cc1n(c2=O)Cc2c-1nc1cc(F)c(C3CC3)c3c1c2C(NC(=O)C[C@@H](C)O)CC3 (single isomer, unassigned) [Compound 17-2] | < 4.52 | < 4.52 | < 4.52 | > 30 µM | 90.07% | 89.34% | 97.06% | 102.21% | good stability in human plasma | – | 1.7 µM (≈ 0.931 µg/mL) | 2730 ng·h/mL | 2250 ng·h/mL | 2690 ng/mL | 1.4 L/kg | 12.3 mL/min/kg | 1.64 h | 93.75%
